Common to all, as to assay type: biochemical
For one test, the target named is PKC isoform α (Homo sapiens, UniProt P17252). Kind of test: Protein Kinase C histone-based assay, PKC alpha. To be noted: histone III substrate, 30 μM ATP. As for the experimental part:
(§1) Protein Kinase C Histone-Based Assay
(§2) Compounds were evaluated for PKC selectivity using histone III as the substrate. The PKC isoforms α, β-II or γ were added to a reaction mixture that contained 20 mM HEPES, (pH 7.4), 940 μM CaCl2, 10 mM MgCl2, 1 mM EGTA. 100 μg/mL phosphatidylserine, 20 μg/mL diacylglycerol, 30 μM ATP, 1 μCi (^33P)ATP and 200 μg/mL histone III. The reaction was incubated for 10 min at 30° C. Reactions were terminated by TCA precipitation and spotting on Whatman P81 filters. Filters were washed in 75 mM phosphoric acid and the radioactivity quantified by liquid scintillation counting.

The target of the next test is PKC isoform γ (Homo sapiens, UniProt P05129). Kind of test: Protein Kinase C histone-based assay, PKC gamma. To be noted: histone III substrate, 30 μM ATP. As for the experimental part: as §1, §2
Another test concerns the target PKC isoform β-II (Homo sapiens, UniProt P05771). Briefly: Protein Kinase C histone-based assay, PKC beta II. To be noted: histone III substrate, 30 μM ATP. As for the experimental part:
as §1, §2

The target of test [1] is T1, recombinant rabbit GSK-3β protein (Oryctolagus cuniculus, UniProt G1T8E2).
T1 construct: purchased New England Biolabs
T1 sequence (G1T8E2 1-432): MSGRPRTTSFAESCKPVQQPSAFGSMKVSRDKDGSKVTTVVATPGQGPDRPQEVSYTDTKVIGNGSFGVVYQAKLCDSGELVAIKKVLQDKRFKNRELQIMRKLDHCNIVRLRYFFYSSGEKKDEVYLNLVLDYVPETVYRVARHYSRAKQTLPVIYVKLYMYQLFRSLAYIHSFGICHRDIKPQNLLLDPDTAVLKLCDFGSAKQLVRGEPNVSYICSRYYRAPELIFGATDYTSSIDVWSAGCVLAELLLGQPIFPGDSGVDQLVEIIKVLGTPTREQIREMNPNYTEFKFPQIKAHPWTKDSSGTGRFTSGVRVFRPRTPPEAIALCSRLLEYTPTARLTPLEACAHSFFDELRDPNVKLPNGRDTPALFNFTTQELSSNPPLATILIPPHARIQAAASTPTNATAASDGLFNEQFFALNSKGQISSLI
Briefly: Glycogen Synthase Kinase-3 assay (PPI-2 phosphorylation). To be noted: for IC50: PPI-2 substrate, 33P-ATP. As for the experimental part: Glycogen Synthase Kinase-3 Assay
Compounds were tested for the ability to inhibit recombinant rabbit GSK-3β protein using the following protocol. The test compound was added to a reaction mixture containing Protein phosphatase inhibitor-2 (PPI-2) (Calbiochem) (45 ng), rabbit GSK-3β protein (New England Biolabs) (0.75 units) and ^33P-ATP (1 μCi) in 50 mM Tris-HCl (pH 8.0), 10 mM MgCl2, 0.1% BSA, 1 mM DTT and 100 μM Sodium Vanadate. The mixture was reacted for 90 minutes at 30° C. to allow phosphorylation of the PPI-2 protein and then the protein in the reaction was precipitated using 10% TCA. The precipitated protein was collected on filter plates (MultiScreen-DV/Millipore), which were subsequently washed. Finally, the radioactivity was quantified using a TopCount Scintillation Counter (Packard). […] Staurosporine or Valproate, known inhibitors of GSK-3β, were used as a positive control for screening.

PKC isoform β-II, sequence (P05771 1-673 isoform P05771-2): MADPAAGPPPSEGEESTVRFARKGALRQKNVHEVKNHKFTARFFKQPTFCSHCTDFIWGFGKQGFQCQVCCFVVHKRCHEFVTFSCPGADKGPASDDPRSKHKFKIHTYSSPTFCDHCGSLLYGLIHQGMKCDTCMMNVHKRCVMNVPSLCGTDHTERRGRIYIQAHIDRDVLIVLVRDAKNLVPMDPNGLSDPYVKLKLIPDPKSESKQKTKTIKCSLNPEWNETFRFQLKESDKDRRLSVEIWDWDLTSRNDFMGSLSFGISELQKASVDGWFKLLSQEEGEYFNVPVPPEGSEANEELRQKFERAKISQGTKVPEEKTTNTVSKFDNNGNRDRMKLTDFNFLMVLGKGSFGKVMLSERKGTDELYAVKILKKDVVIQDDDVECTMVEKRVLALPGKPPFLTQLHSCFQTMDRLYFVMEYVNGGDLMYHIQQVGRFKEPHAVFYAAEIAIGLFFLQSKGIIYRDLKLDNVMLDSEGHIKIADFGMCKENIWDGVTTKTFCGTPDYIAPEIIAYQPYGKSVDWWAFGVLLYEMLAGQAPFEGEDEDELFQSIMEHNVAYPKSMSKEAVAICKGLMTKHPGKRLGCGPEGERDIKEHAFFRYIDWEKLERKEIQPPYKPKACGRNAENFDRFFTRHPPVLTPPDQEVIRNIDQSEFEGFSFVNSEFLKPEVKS

What is called IC50 is the concentration needed to halve the response being measured. Consider `Cn1cc(C2=C(c3nn(CCCn4ccnc4)c4ccccc34)C(=O)NC2=O)c2cc(Cl)ccc21` [Compound 1, 3-(5-Chloro-1-methyl-1H-indol-3-yl)-4-[1-(3-imidazol-1-yl-propyl)-1H-indazol-3-yl]-pyrrole-2,5-dione], for which the IC50 on PKC isoform α is 0.567 µM; against PKC isoform γ it was 0.476 µM; against PKC isoform β-II, 0.015 µM; in test [1] it was 0.004 µM.

As to `Cn1cc(C2=C(c3nn(CCCn4ccnn4)c4ccccc34)C(=O)NC2=O)c2cc(Cl)ccc21` [Compound 2, 3-(5-Chloro-1-methyl-1H-indole-3-yl)-4-[1-(3-[1,2,3]triazole-1-yl-propyl)-1H-indzol-3-yl]-pyrrole-2,5-dione], the IC50 came out at 1.21 µM on PKC isoform α, 0.395 µM at PKC isoform γ, 0.046 µM at PKC isoform β-II and 0.003 µM in test [1].

Take `Cn1cc(C2=C(c3nn(CCCn4ncnn4)c4ccccc34)C(=O)NC2=O)c2cc(Cl)ccc21` [Compound 3, 3-(5-Chloro-1-methyl-1H-indol-3-yl)-4-[1-(3-tetrazol-2-yl-propyl)-1H-indazol-3-yl]pyrrole-2,5-dione]: the IC50 is 2.35 µM against PKC isoform α, 1.01 µM against PKC isoform γ, 0.045 µM on PKC isoform β-II and 0.004 µM in test [1].

For `Cn1cc(C2=C(c3nn(CCCn4cnnn4)c4ccccc34)C(=O)NC2=O)c2cc(Cl)ccc21` [Compound 4, 3-(5-Chloro-1-methyl-1H-indol-3-yl)-4-[1-(3-tetrazol-1-yl-propyl)-1H-indazol-3-yl]-pyrrole-2,5-dione], the IC50 at PKC isoform α came out at 0.505 µM; on PKC isoform γ, 0.544 µM; against PKC isoform β-II, 0.035 µM; in test [1], 0.004 µM.

For the compound `O=C1NC(=O)C(c2nn(CCCn3ncnn3)c3ccccc23)=C1c1cn(-c2ccc3ccccc3c2)c2ccccc12` [Compound 5, 3-(1-Naphthalen-2-yl-1H-indole-3-yl)-4-[1-(3-tetrazol-2-yl-propyl)-1H-indazol-3-yl]-pyrrole-2,5-dione], the IC50 against PKC isoform α came to 0.542 µM; on PKC isoform γ, 1.7 µM; against PKC isoform β-II, 0.025 µM; in test [1], 0.776 µM.

Regarding `O=C1NC(=O)C(c2nn(CCCn3cnnn3)c3ccccc23)=C1c1cn(-c2ccc3ccccc3c2)c2ccccc12` [Compound 6, 3-(1-Naphthalen-2-yl-1H-indol-3-yl)-4-[1-(3-tetrazol-1-yl-propyl)-1H-indazol-3-yl]pyrrole-2,5-dione], the IC50 was 0.326 µM on PKC isoform α, 1.11 µM against PKC isoform γ and 0.022 µM against PKC isoform β-II. Besides, in test [1] (@ 1 μM), the “GSK-3β Assay Activity, % @ 1 μM” value stood at 29% @ 1 μM.

In the case of `O=C1NC(=O)C(c2nn(CCCn3ncnn3)c3ccccc23)=C1c1cn(-c2cccnc2)c2ccccc12` [Compound 7, 3-(1-Pyridin-3-yl-1H-indol-3-yl)-4-[1-(3-tetrazol-2-yl-propyl)-1H-indazole-3-yl]-pyrrole-2,5-dione], the IC50 against PKC isoform α amounted to 0.451 µM; against PKC isoform γ, 1.45 µM; against PKC isoform β-II, 0.044 µM; in test [1] it was 0.027 µM.

As to `O=C1NC(=O)C(c2nn(CCCn3cnnn3)c3ccccc23)=C1c1cn(-c2cccnc2)c2ccccc12` [Compound 8, 3-(1-Pyridin-3-yl-1H-indol-3-yl)-4-[1-(3-tetrazol-1-yl-propyl)-1H-indazol-3-yl]-pyrrole-2,5-dione], the IC50 on PKC isoform α was 1.04 µM; against PKC isoform γ it was 4.3 µM; against PKC isoform β-II it was 0.052 µM; in test [1] it was 0.034 µM.

Consider `Cc1nnn(CCCn2nc(C3=C(c4cn(C)c5ccc(Cl)cc45)C(=O)NC3=O)c3ccccc32)n1` [Compound 9], for which the IC50 against PKC isoform α came out at 2.98 µM; against PKC isoform γ, 1.42 µM; against PKC isoform β-II, 0.041 µM; in test [1] it was 0.005 µM.

Regarding `Cc1nnnn1CCCn1nc(C2=C(c3cn(C)c4ccc(Cl)cc34)C(=O)NC2=O)c2ccccc21` [Compound 10], the IC50 at PKC isoform α is 0.424 µM; on PKC isoform γ, 0.602 µM; at PKC isoform β-II, 0.009 µM; in test [1], 0.005 µM.

Take `Cn1cc(C2=C(c3nn(CCc4nnn[nH]4)c4ccccc34)C(=O)NC2=O)c2cc(Cl)ccc21` [Compound 11, 3-(5-Chloro-1-methyl-1H-indol-3-yl)-4-{1-[2-(1H-tetrazol-5-yl)-ethyl]-1H-indazol-3-yl)-pyrrole-2,5-dione]: the half-maximal inhibitory concentration (IC50) against PKC isoform α stood at 1.36 µM; against PKC isoform γ it was 1.93 µM; against PKC isoform β-II, 0.123 µM; in test [1] it was 0.005 µM.

Consider `O=C1NC(=O)C(c2nn(CCc3nnn[nH]3)c3ccccc23)=C1c1cn(-c2cccnc2)c2ccc(Cl)cc12` [Compound 12], for which the IC50 against PKC isoform α was 0.554 µM; at PKC isoform γ, 0.226 µM; against PKC isoform β-II, 0.069 µM; in test [1] it was 0.107 µM.

The record behind these values is patent US7439363B2, “Substituted indazoly(indoly)maleimide derivatives as kinase inhibitors” (Janssen Parmaceutica N.V., priority 2003, dated 2008).
